Key:
[1] = molecular target: PKR R532W (Homo sapiens, UniProt P30613, R532W); assay: PKR mutant assay, PKR R532W AC50; format: biochemical; conditions: mutant PKR R532W enzyme
Method: (§1) • PKR or PKR mutant enzyme solution was diluted in assay buffer. • 2 μL of test compound was added into wells first, and then 180 μL reaction mix was added. • Reactions mixture with test compound was assembled except for ADP, and plates were stored for 60 minutes at room temperature. • 20 uL ADP was added to start reaction at room temperature and reaction progress was measured as changes in absorbance at 340 nm wavelength at room temperature.
(§2) Test Compound Preparation: • Test compound stock was made at 100x concentration in 100% DMSO (10 mM) • 1 to 3 dilutions were made for 11 points (i.e. 50 μl of first concentration added to 100 μl 100% DMSO to yield 3.33 mM, 50 μl of this added to 100 μl DMSO to yield 1.11 mM, and so forth) • 1 to 100 dilution into assay (2 μl in 200 μl) yielded starting concentration of 100 μM, decreasing 3 fold for 11 points • Assay Buffer: 100 mM KCl, 50 mM Tris 7.5, 5 mM MgCl2, 1 mM DTT, 0.03% BSA • Reaction Mixture: PKR mutant enzyme: 80-400 ng/well; ADP: 0.22-1.65 mM; PEP: 0.1-0.5 mM; NADH:180 uM; LDH: 0.5 units (Sigma#59023); DTT: 1 mM; BSA: 0.03%.
(§3) A compound described herein was diluted with DMSO and tested at 1 μM concentration. The enzyme was diluted in 1× Buffer: (100 mM KCl, 50 mM Tris 7.5, 5 mM MgCl2, 1 mM DTT, 0.03% BSA). 2 μL of compound solution was first added into wells, and then 180 μL of enzyme solution was added. Assays were assembled except for ADP, and plates were stored for 60 minutes at RT. 20 μL ADP was added to start the assay and assay output was evaluated using OD340 at SpectraMax. The assay was run at room temperature. • Final concentration: PKR R532W (100 ng/well), Tris pH 7.5 (50 mM), KCl (100 mM), MgCl2 (5 mM), ADP (0.36 mM), PEP (0.1 mM), NADH (180 μM), LDH (0.5 units, Sigma 59023), DTT (1 mM) and BSA (0.03%).

[2] = molecular target: PKR R510Q (Homo sapiens, UniProt P30613, R510Q); assay: PKR mutant assay, PKR R510Q AC50; format: biochemical; conditions: mutant PKR R510Q enzyme
Method: as §1
as §2, with “0.03%. […]” for “0.03%.”

[3] = molecular target: T1, PKR WT (Homo sapiens, UniProt P30613); assay: PKR WT enzymatic assay AC50; format: biochemical; conditions: wild type PKR
Method: as §1, §2
as §3, with “wt” for “R532W”, “(0.48” for “(0.36”, “(0.15” for “(0.1”

[4] = molecular target: T1, PKR WT; assay: PKR WT cell based assay AC50; conditions: wild type PKR

T1 sequence (P30613 whole entry): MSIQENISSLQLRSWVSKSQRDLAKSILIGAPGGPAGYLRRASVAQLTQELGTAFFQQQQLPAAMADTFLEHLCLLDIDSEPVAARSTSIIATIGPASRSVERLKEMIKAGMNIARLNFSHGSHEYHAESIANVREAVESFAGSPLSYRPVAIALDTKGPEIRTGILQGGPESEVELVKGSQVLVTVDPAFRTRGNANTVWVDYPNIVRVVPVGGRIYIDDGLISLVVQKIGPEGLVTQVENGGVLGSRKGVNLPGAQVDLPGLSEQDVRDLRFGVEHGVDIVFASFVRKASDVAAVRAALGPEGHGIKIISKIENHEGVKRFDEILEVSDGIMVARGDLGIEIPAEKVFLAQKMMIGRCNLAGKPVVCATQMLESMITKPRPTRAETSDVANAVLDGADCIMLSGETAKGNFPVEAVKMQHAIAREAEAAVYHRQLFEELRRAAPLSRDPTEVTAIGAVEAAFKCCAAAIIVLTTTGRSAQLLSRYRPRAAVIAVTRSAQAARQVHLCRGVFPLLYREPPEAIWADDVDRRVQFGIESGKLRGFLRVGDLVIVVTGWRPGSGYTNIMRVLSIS
Sequence of PKR R510Q (P30613 whole entry R510Q): as the sequence (P30613 whole entry) above, with R510Q counted along it
Sequence of PKR R532W (P30613 whole entry R532W): as the sequence (P30613 whole entry) above, with R532W counted along it

Compound	AC50 [1]	AC50 [2]	AC50 [3]	AC50 [4]
COc1ccccc1C1(O)CN(C(=O)c2ccc(NS(=O)(=O)c3cccc4cccnc34)cc2)C1 [Compound 2, N-(4-(3-hydroxy-3-(2-methoxyphenyl)azetidine-1-carbonyl)phenyl)quinoline-8-sulfonamide]	< 100 nM	101 to 1000 nM	< 100 nM	101 to 1000 nM
O=C(c1ccc(NS(=O)(=O)c2cccc3cccnc23)cc1)N1CC(O)(c2cccc(F)c2)C1 [Compound 4, N-(4-(3-(3-fluorophenyl)-3-hydroxyazetidine-1-carbonyl)phenyl)quinoline-8-sulfonamide]	101 to 1000 nM	1010 to 10000 nM	101 to 1000 nM	< 100 nM
O=C(c1ccc(NS(=O)(=O)c2cccc3cccnc23)cc1)N1CC(O)(c2ccccc2Cl)C1 [Compound 5, N-(4-(3-(2-chlorophenyl)-3-hydroxyazetidine-1-carbonyl)phenyl)quinoline-8-sulfonamide]	< 100 nM	101 to 1000 nM	< 100 nM	101 to 1000 nM
O=C(c1ccc(NS(=O)(=O)c2cccc3cccnc23)cc1)N1CC(O)(c2ccccc2OC(F)(F)F)C1 [Compound 7, N-(4-(3-hydroxy-3-(2-(trifluoromethoxy)phenyl)azetidine-1-carbonyl)phenyl)quinoline-8-sulfonamide]	< 100 nM	101 to 1000 nM	101 to 1000 nM	101 to 1000 nM
O=C(c1ccc(NS(=O)(=O)c2cccc3cccnc23)cc1)N1CC(O)(c2cccc(C(F)(F)F)c2)C1 [Compound 9, N-(4-(3-hydroxy-3-(3-(trifluoromethyl)phenyl)azetidine-1-carbonyl)phenyl)quinoline-8-sulfonamide]	< 100 nM	< 100 nM	< 100 nM	< 100 nM
O=C(c1ccc(NS(=O)(=O)c2cccc3cccnc23)cc1)N1CC(O)(c2cccc(OC(F)(F)F)c2)C1 [Compound 10, N-(4-(3-hydroxy-3-(3-(trifluoromethoxy)phenyl)azetidine-1-carbonyl)phenyl)quinoline-8-sulfonamide]	< 100 nM	101 to 1000 nM	< 100 nM	101 to 1000 nM
O=C(c1ccc(NS(=O)(=O)c2cccc3cccnc23)cc1)N1CC(O)(c2cccc(Cl)c2)C1 [Compound 11, N-(4-(3-(3-chlorophenyl)-3-hydroxyazetidine-1-carbonyl)phenyl)quinoline-8-sulfonamide]	< 100 nM	101 to 1000 nM	< 100 nM	101 to 1000 nM
CCc1ccccc1C1(O)CN(C(=O)c2ccc(NS(=O)(=O)c3cccc4cccnc34)cc2)C1 [Compound 13, N-(4-(3-(2-ethylphenyl)-3-hydroxyazetidine-1-carbonyl)phenyl)quinoline-8-sulfonamide]	–	101 to 1000 nM	< 100 nM	< 100 nM
O=C(c1ccc(NS(=O)(=O)c2cccc3cccnc23)cc1)N1CC(O)(c2cccnc2C(F)(F)F)C1 [Compound 17, N-(4-(3-hydroxy-3-(2-(trifluoromethyl)pyridin-3-yl)azetidine-1-carbonyl)phenyl)quinoline-8-sulfonamide]	–	101 to 1000 nM	< 100 nM	101 to 1000 nM
O=C(c1ccc(NS(=O)(=O)c2ccc(F)cc2F)cc1)N1CC(O)(c2cccc(C(F)(F)F)c2)C1 [Compound 42, 2,4-difluoro-N-(4-(3-hydroxy-3-(3-(trifluoromethyl)phenyl)azetidine-1-carbonyl)phenyl)benzenesulfonamide]	> 10000 nM	> 10000 nM	> 10000 nM	–
O=C(c1ccc(NS(=O)(=O)c2cccc3cnccc23)cc1)N1CC(O)(c2cccc(C(F)(F)F)c2)C1 [Compound 43, N-(4-(3-hydroxy-3-(3-(trifluoromethyl)phenyl)azetidine-1-carbonyl)phenyl)isoquinoline-5-sulfonamide]	1010 to 10000 nM	> 10000 nM	1010 to 10000 nM	–
O=C(c1ccc(NS(=O)(=O)c2cccc3ncccc23)cc1)N1CC(O)(c2cccc(C(F)(F)F)c2)C1 [Compound 44, N-(4-(3-hydroxy-3-(3-(trifluoromethyl)phenyl)azetidine-1-carbonyl)phenyl)quinoline-5-sulfonamide]	1010 to 10000 nM	1010 to 10000 nM	1010 to 10000 nM	–
O=C(c1ccc(NS(=O)(=O)c2cccc3cccnc23)cc1F)N1CC(O)(Cc2ccccc2)C1 [Compound 45, N-(4-(3-benzyl-3-hydroxyazetidine-1-carbonyl)-3-fluorophenyl)quinoline-8-sulfonamide]	101 to 1000 nM	1010 to 10000 nM	101 to 1000 nM	–
O=C(c1ccc(NS(=O)(=O)c2cccc3cccnc23)c(F)c1)N1CC(O)(Cc2ccccc2)C1 [Compound 46, N-(4-(3-benzyl-3-hydroxyazetidine-1-carbonyl)-2-fluorophenyl)quinoline-8-sulfonamide]	101 to 1000 nM	1010 to 10000 nM	101 to 1000 nM	–
O=C(c1ccc(NS(=O)(=O)c2ccccc2Cl)cc1)N1CC(O)(Cc2ccccc2)C1 [Compound 49, N-(4-(3-benzyl-3-hydroxyazetidine-1-carbonyl)phenyl)-2-chlorobenzenesulfonamide]	1010 to 10000 nM	> 10000 nM	1010 to 10000 nM	–
O=C(c1ccc(NS(=O)(=O)c2ccccc2C(F)(F)F)cc1)N1CC(O)(Cc2ccccc2)C1 [Compound 51, N-(4-(3-benzyl-3-hydroxyazetidine-1-carbonyl)phenyl)-2-(trifluoromethyl)benzenesulfonamide]	> 10000 nM	> 10000 nM	> 10000 nM	–
O=C(c1ccc(NS(=O)(=O)c2cccc(Cl)c2Cl)cc1)N1CC(O)(Cc2ccccc2)C1 [Compound 52, N-(4-(3-benzyl-3-hydroxyazetidine-1-carbonyl)phenyl)-2,3-dichlorobenzenesulfonamide]	1010 to 10000 nM	> 10000 nM	1010 to 10000 nM	–
O=C(c1ccc(NS(=O)(=O)c2cccc3cccnc23)cc1)N1CC(O)(Cc2cccc(F)n2)C1 [Compound 54, N-(4-(3-((6-fluoropyridin-2-yl)methyl)-3-hydroxyazetidine-1-carbonyl)phenyl)quinoline-8-sulfonamide]	101 to 1000 nM	1010 to 10000 nM	101 to 1000 nM	–
O=C(c1ccc(NS(=O)(=O)c2cccc3cccnc23)cc1)N1CC(O)(Cc2ccccn2)C1 [Compound 55, N-(4-(3-hydroxy-3-(pyridin-2-ylmethyl)azetidine-1-carbonyl)phenyl)quinoline-8-sulfonamide]	101 to 1000 nM	1010 to 10000 nM	101 to 1000 nM	–
Cc1cccc(CC2(O)CN(C(=O)c3ccc(NS(=O)(=O)c4cccc5cccnc45)cc3)C2)n1 [Compound 56, N-(4-(3-hydroxy-3-((6-methylpyridin-2-yl)methyl)azetidine-1-carbonyl)phenyl)quinoline-8-sulfonamide]	101 to 1000 nM	> 10000 nM	1010 to 10000 nM	–
O=C(c1ccc(NS(=O)(=O)c2cccc3nonc23)cc1)N1CC(O)(Cc2ccccc2)C1 [Compound 69]	> 10000 nM	> 10000 nM	> 10000 nM	–
Cn1c(=O)oc2cc(S(=O)(=O)Nc3ccc(C(=O)N4CC(O)(Cc5ccccc5)C4)cc3)ccc21 [Compound 70]	> 10000 nM	> 10000 nM	> 10000 nM	–

Reference: US9458132B2, “Therapeutic compounds and compositions and their use as PKM2 modulators” (AGIOS PHARMACEUTICALS, INC., priority 2012, dated 2016)
